Entries after “also recorded” stand apart in the source; their conditions may differ.
Tests used:
Assay type in all cases: cell-based
[1] = system: MDA-MB-231: estrogen independent human breast adenocarcinoma; assay: Cell death of MDA-MB-231 cells after drug with or without pLINFU sonoporation
Description: (§1) The system of the present invention was tested in vitro using two cellular lines of human breast cancer and one cellular line of human pancreatic adenocarcinoma. In particular the following cellular lines were employed: • MCF-7: human breast ductal carcinoma; • MDA-MB-231: estrogen independent human breast adenocarcinoma; • MiaPaCa-2: human pancreatic adenocarcinoma.
(§2) For each combination the percentage of cell death was measured in three main experimental conditions: • administration of the drug (hereinafter named “NO-US” condition); • administration of the drug and simultaneous administration of non focalized pulsed low-intensity ultrasound with a frequency of 1 MHz and a period of 1 second, said drug being administered in a unique dose; • 1 administration of non focalized pulsed low-intensity ultrasound with a frequency of 1 MHz and a period of 1 second, followed by administration of the drug; and • administration of the drug and simultaneous administration of non focalized pulsed low-intensity ultrasound with a frequency of 1 MHz and a period of 1 second, said drug being administered in two doses of equal concentration (hereinafter termed “US-DC” condition).
(§3) All the experimental conditions, other than NO-US, were replicated for different values of duty cycle and each experimental condition were replicated for three different total concentrations of drugs. Several operation times were also tested for each cellular lines and for each type of drug.

[2] = system: MCF-7: human breast ductal carcinoma; assay: Cell death of MCF-7 cells after drug with or without pLINFU sonoporation
Description: as §1, §2, §3

[3] = system: human pancreatic adenocarcinoma cells; assay: Internalization of fluoresceinamine (FA) into cancer cells (FIG. 7, CLSM)
Source text: This example is relative to an experiment of internalization of a fluoresceinamine (FA). […] The tested experimental condition are: • FA-NO-US-NO DRUG: administration of FA alone, without administration of any drug and without administration of ultrasounds; • FA-LI-NO-US: administration of FA and liposomal irinotecan (LI), without administration of ultrasounds; • US-DC=12%: administration of FA and liposomal irinotecan (LI), with the simultaneous administration of pLINFUs with a duty cycle of 12%; • US-PRE-DC=1%: administration of pLINFUs with a duty cycle of 1% followed by subsequent administration of FA and liposomal irinotecan (LI); and • US-DC=1%: administration of FA and liposomal irinotecan (LI), with the simultaneous administration of pLINFUs with a duty cycle of 1%.
In FIG. 7, it is graphically represented the FA Internalization (%), i.e. the percentage of FA measured after the removal of the […] liquid from the cell culture wells, i.e. the percentage of FA inside the cell. The results of the experiment of this example were also analyzed by Confocal Laser Scanning Microscopy (CLSM) after 2 hours of incubation. FIGS. 8a, 8b, 8c, 8d, 8e show the intake of the FA into human pancreatic adenocarcinoma cells, in the five aforementioned experimental conditions.
It can be explained with a greater chemical interaction between the polymeric chains of polyethylene glycol of the liposomal membrane and the FA.

[4] = system: MiaPaCa-2: human pancreatic adenocarcinoma; assay: Cell death of MiaPaCa-2 cells after drug with or without pLINFU sonoporation; conditions: MiaPaCa2
Description: as §1, §2, §3

[5] = total concentration 100 μg/ml, NO-US (no ultrasound)
[6] = total concentration 100 μg/ml, US-DC = 9%
[7] = total concentration 100 μg/ml, US-DC = 9% (pLINFU 1 MHz, 20 s + 20 s)
[8] = total concentration 100 μg/ml, US-DC = 12%
[9] = total concentration 100 μg/ml, US-DC = 12% (pLINFU 1 MHz, 20 s + 20 s)
[10] = total concentration 500 μg/ml, NO-US (no ultrasound)
[11] = total concentration 500 μg/ml, US-DC = 9%
[12] = total concentration 500 μg/ml, US-DC = 9% (pLINFU 1 MHz, 20 s + 20 s)
[13] = total concentration 500 μg/ml, US-DC = 12%
[14] = total concentration 500 μg/ml, US-DC = 12% (pLINFU 1 MHz, 20 s + 20 s)
[15] = total concentration 1000 μg/ml, US-DC = 9%
[16] = total concentration 1000 μg/ml, US-DC = 9% (pLINFU 1 MHz, 20 s + 20 s)
[17] = total concentration 1000 μg/ml, US-DC = 12%
[18] = total concentration 0.5 μM, NO-US (no ultrasound)
[19] = total concentration 0.5 μM, US-DC = 9%
[20] = total concentration 0.5 μM, US-DC = 9% (pLINFU 1 MHz, 20 s + 20 s)
[21] = total concentration 0.5 μM, US-DC = 12%
[22] = total concentration 0.5 μM, US-DC = 12% (pLINFU 1 MHz, 20 s + 20 s)
[23] = total concentration 10 μM, NO-US (no ultrasound)
[24] = total concentration 10 μM, US-DC = 9%
[25] = total concentration 10 μM, US-DC = 9% (pLINFU 1 MHz, 20 s + 20 s)
[26] = total concentration 10 μM, US-DC = 12%
[27] = total concentration 10 μM, US-DC = 12% (pLINFU 1 MHz, 20 s + 20 s)
[28] = total concentration 50 μM, NO-US (no ultrasound)
[29] = total concentration 50 μM, US-DC = 9%
[30] = total concentration 50 μM, US-DC = 9% (pLINFU 1 MHz, 20 s + 20 s)
[31] = total concentration 50 μM, US-DC = 12%
[32] = total concentration 50 μM, US-DC = 12% (pLINFU 1 MHz, 20 s + 20 s)

COc1cccc2c1C(=O)c1c(O)c3c(c(O)c1C2=O)C[C@@](O)(C(=O)CO)C[C@@H]3O[C@H]1C[C@H](N)[C@H](O)[C@H](C)O1 [Doxorubicin]
Cell Death % [1, 5]: 10.9%
Increasing % vs NO-US [1, 6]: +116%
Cell Death % [1, 7]: 23.5%
Increasing % vs NO-US [1, 8]: +11.8%
Cell Death % [1, 9]: 12%
Cell Death % [1, 10]: 22.8%
Increasing % vs NO-US [1, 11]: +70.5%
Cell Death % [1, 12]: 38.8%
Increasing % vs NO-US [1, 13]: +18.4%
Cell Death % [1, 14]: 27%
Increasing % vs NO-US [1, 15]: +11.1%
Cell Death % [1, 16]: 60.5%
Increasing % vs NO-US [1, 17]: +0.3%
Cell Death % [2, 5]: 17.1%
Increasing % vs NO-US [2, 6]: +74.4%
Cell Death % [2, 7]: 29.8%
Increasing % vs NO-US [2, 8]: +64.9%
Cell Death % [2, 9]: 28.2%
Cell Death % [2, 10]: 23.3%
Increasing % vs NO-US [2, 11]: +102.5%
Cell Death % [2, 12]: 47.2%
Increasing % vs NO-US [2, 13]: +114.2%
Cell Death % [2, 14]: 49.9%
Cell Death % ([2]; total concentration 1000 μg/ml, NO-US (no ultrasound)): 59%
Increasing % vs NO-US [2, 15]: +19.7%
Cell Death % [2, 16]: 70.6%^
Increasing % vs NO-US [2, 17]: +39%
Cell Death % ([2]; total concentration 1000 μg/ml, US-DC = 12% (pLINFU 1 MHz, 20 s + 20 s)): 82%

Nc1ccc2c(c1)C(=O)OC21c2ccc(O)cc2Oc2cc(O)ccc21 [FA, fluoresceinamine]
intake of the FA into cells (CLSM) ([3]; FA-LI-NO-US: FA with liposomal irinotecan, no ultrasound, FIG. 8b): greater fluorescence density is observed, but only at an extracellular perimembrane level
intake of the FA into cells (CLSM) ([3]; FA-NO-US-NO DRUG: FA alone, no drug, no ultrasound, 2 hours incubation, FIG. 8a): not accumulated in the cells
FA Internalization (%) ([3]; US-DC=1% compared with the other four conditions, FIG. 7): higher FA internalization %
intake of the FA into cells (CLSM) ([3]; US-DC=1%: FA with liposomal irinotecan, simultaneous pLINFU duty cycle 1%, FIG. 8e): highest level of FA internalization
intake of the FA into cells (CLSM) ([3]; US-DC=12%: FA with liposomal irinotecan, simultaneous pLINFU duty cycle 12%, FIG. 8c): the presence of FA inside the cells became evident
intake of the FA into cells (CLSM) ([3]; US-PRE-DC=1%: pLINFU duty cycle 1% followed by FA and liposomal irinotecan, FIG. 8d): the presence of FA inside the cells became evident; also recorded: a certain grade of FA internalization is achieved

CCc1c2c(nc3ccc(OC(=O)N4CCC(N5CCCCC5)CC4)cc13)-c1cc3c(c(=O)n1C2)COC(=O)[C@]3(O)CC [Irinotecan]
Cell Death % ([4]; total concentration 0.05 μM, NO-US (no ultrasound)): 11.5%
Increasing % vs NO-US ([4]; total concentration 0.05 μM, US-DC = 1%): +120.8%
Cell Death % ([4]; total concentration 0.05 μM, US-DC = 1% (pLINFU 1 MHz, 20 s + 20 s)): 25.4%
Increasing % vs NO-US ([4]; total concentration 0.05 μM, US-DC = 12%): +60.6%
Cell Death % ([4]; total concentration 0.05 μM, US-DC = 12% (pLINFU 1 MHz, 20 s + 20 s)): 18.5%
Cell Death % ([4]; total concentration 1 μM, NO-US (no ultrasound)): 21.1%
Increasing % vs NO-US ([4]; total concentration 1 μM, US-DC = 1%): +62.9%
Cell Death % ([4]; total concentration 1 μM, US-DC = 1% (pLINFU 1 MHz, 20 s + 20 s)): 34.3%
Increasing % vs NO-US ([4]; total concentration 1 μM, US-DC = 12%): +42.5%
Cell Death % ([4]; total concentration 1 μM, US-DC = 12% (pLINFU 1 MHz, 20 s + 20 s)): 30%
Cell Death % ([4]; total concentration 50 μM (irinotecan series), NO-US (no ultrasound)): 56.7%
Increasing % vs NO-US ([4]; total concentration 50 μM (irinotecan series), US-DC = 1%): +31.1%
Cell Death % ([4]; total concentration 50 μM (irinotecan series), US-DC = 1% (pLINFU 1 MHz, 20 s + 20 s)): 74.3%
Increasing % vs NO-US ([4]; total concentration 50 μM (irinotecan series), US-DC = 12%): +16.5%
Cell Death % ([4]; total concentration 50 μM (irinotecan series), US-DC = 12% (pLINFU 1 MHz, 20 s + 20 s)): 66%

CC(=O)O[C@H]1C(=O)[C@@]2(C)[C@H]([C@H](OC(=O)c3ccccc3)[C@]3(O)C[C@H](OC(=O)[C@H](O)[C@@H](NC(=O)c4ccccc4)c4ccccc4)C(C)=C1C3(C)C)[C@]1(OC(C)=O)CO[C@@H]1C[C@@H]2O [Paclitaxel]
Cell Death % [1, 18]: 6.4%
Increasing % vs NO-US [1, 19]: +76.6%
Cell Death % [1, 20]: 11.3%
Increasing % vs NO-US [1, 21]: −7.8%
Cell Death % [1, 22]: 5.9%
Cell Death % [1, 23]: 6.4%
Increasing % vs NO-US [1, 24]: +128.4%
Cell Death % [1, 25]: 14.7%
Increasing % vs NO-US [1, 26]: +15%
Cell Death % [1, 27]: 7.4%
Cell Death % [1, 28]: 7.9%
Increasing % vs NO-US [1, 29]: +221.9%
Cell Death % [1, 30]: 25.5%
Increasing % vs NO-US [1, 31]: +55.3%
Cell Death % [1, 32]: 12.3%
Cell Death % [2, 18]: 1.0%
Increasing % vs NO-US [2, 19]: +807.5%
Cell Death % [2, 20]: 9.1%
Increasing % vs NO-US [2, 21]: +242.5%
Cell Death % [2, 22]: 3.4%
Cell Death % [2, 23]: 4.1%
Increasing % vs NO-US [2, 24]: +484.7%
Cell Death % [2, 25]: 24%
Increasing % vs NO-US [2, 26]: +221.6%
Cell Death % [2, 27]: 13.2%
Cell Death % [2, 28]: 7.2%
Increasing % vs NO-US [2, 29]: +354.2%
Cell Death % [2, 30]: 32.7%
Increasing % vs NO-US [2, 31]: +147.3%
Cell Death % [2, 32]: 17.8%
Cell Death % [4, 18]: 45.5%
Increasing % vs NO-US ([4]; total concentration 0.5 μM, US-DC = 1%): 40.1%
Cell Death % ([4]; total concentration 0.5 μM, US-DC = 1% (pLINFU 1 MHz, 20 s + 20 s)): 22.7%
Increasing % vs NO-US [4, 21]: 17.1%
Cell Death % [4, 22]: 12.7%
Cell Death % [4, 23]: 65.3%
Increasing % vs NO-US ([4]; total concentration 10 μM, US-DC = 1%): +22.7%
Cell Death % ([4]; total concentration 10 μM, US-DC = 1% (pLINFU 1 MHz, 20 s + 20 s)): 12.8%
Increasing % vs NO-US [4, 26]: +12.7%
Cell Death % [4, 27]: 9.2%
Cell Death % [4, 28]: 80.2%
Increasing % vs NO-US ([4]; total concentration 50 μM, US-DC = 1%): +12.8%
Cell Death % ([4]; total concentration 50 μM, US-DC = 1% (pLINFU 1 MHz, 20 s + 20 s)): 90.5%
Increasing % vs NO-US [4, 31]: +9.2%
Cell Death % [4, 32]: 87.6%

Source: patent publication US12397056B2, “System for inducing sonoporation of a drug into cancer cells and method thereof” (Freedom Waves S.R.L, priority 2018, dated 2025)
